Reference: paper PMC3952036 (Cellular and molecular life sciences : CMLS, 2014)

Biological target: Flag-DOR (murine DOR tagged with Flag at the N-terminus) (Mus musculus, UniProt P32300)
Sequence (P32300 whole entry): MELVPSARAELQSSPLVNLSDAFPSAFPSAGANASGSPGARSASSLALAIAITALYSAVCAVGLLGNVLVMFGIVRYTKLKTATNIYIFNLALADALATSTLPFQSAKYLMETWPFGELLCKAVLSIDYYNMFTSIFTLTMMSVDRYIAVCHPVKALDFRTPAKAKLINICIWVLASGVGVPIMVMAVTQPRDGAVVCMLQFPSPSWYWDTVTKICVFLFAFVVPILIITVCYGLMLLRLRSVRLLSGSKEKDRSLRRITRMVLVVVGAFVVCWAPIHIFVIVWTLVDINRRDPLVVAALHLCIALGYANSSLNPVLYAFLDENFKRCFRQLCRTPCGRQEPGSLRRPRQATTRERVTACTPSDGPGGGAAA

## C=CCN1C[C@H](C)N([C@H](c2ccc(C(=O)N(CC)CC)cc2)c2cccc(OC)c2)C[C@H]1C [SNC-80, (1)-4-[(αR)-α-((2S,5R)-4-allyl-2,5-dimethyl-1-piperazinyl)-3-methoxybenzyl]-N,N-diethylbenzamide]
  log KA ± SEM (M): −6.58 ± 0.43 log M
